# Experimental data as given in patent publication US11738095B2, “Cyanine-containing compounds for cancer imaging and treatment” (Emory University, priority 2007, dated 2023).
# Experiments:
# VEC = test: uptake of IR783 in cell lines: vascular endothelia; type: cell-based, human
# Text: (§1) The uptake of IR783 was studied and confirmed in a variety of human cell lines as shown below: […]
# NPF = test: uptake of IR783 in cell lines: prostate fibroblasts; type: cell-based, human
# Text: as §1
# [1] = tested on: orthotopic prostate ARCaPM tumor; test: NIR imaging to assess pharmacokinetics of IR783 in vivo (FIG. 16A, 19); set-up: species or system mouse
# Description: NIR imaging studies were performed to assess pharmacokinetics of the IR783 in vivo. […] This mouse was injected i.p with 0.2 μg/kg IR783 at 0 hrs.
# ARCaPM and PC3 tumors = test: IR783 imaging of pre-established tumors in live mice, 5 nmol tail vein (FIG. 18); type: in vivo, mouse
# Text: Intratibial ARCaPM tumors were also established in live mice prior to administration of IR783. 5 nmol of IR783 was given through the tail vein and imaged using a Kodak multimodal imaging system.
# Subcutaneous ARCaPM and PC3 (four tumors with different sizes) tumors were established in live mice prior to the administration of IR-783. 5 nmol of IR783 were given to mice through tail vein and imaged using Kodak multimodal-imaging system.
# HaCaT = test: uptake of IR783 in cell lines: skin; type: cell-based, human
# Text: as §1
# [2] = tested on: human prostate cancer cells PC3 and ARCaPM in whole blood; test: NIR detection of cancer cells spiked into human blood with IR783 (FIG. 17); type: cell-based
# Description: IR783 can be used to detect and enrich disseminating cancer cells in the blood (FIG. 17). […] 5×10^3 human prostate cancer cells PC3 and ARCaPM were used to spike a 0.5 ml heparinized whole blood from a healthy donor. After incubation at 37° C. for 30 minutes, a gradient centrifugation (Histopaque-1077, Sigma) was applied to remove red blood cells. The remaining cells were washed 5 times in PBS, cells in 50 μl of the 250 μl total volume were smeared on a glass slide for NIR fluorescence detection. […] This method can detect as few as 10 human prostate cancer cells/ml of human blood, a concentration close to that of the estimated numbers of CTC as reported by previous investigators.
# C4-2 = test: effect of MHI-25 on C4-2 cells in culture (FIG. 9 top); type: cell-based, human; conditions: for cell death in culture: 24 hrs
# Text: To confirm the ability of other compounds to exert cytotoxicity against the growth of human tumors in vitro and in vivo, the effect of MHI-25 on the growth of C4-2 tumors in vitro (FIG. 9 top panel) and in mice (FIG. 9 bottom panel) was studied.
# K562 = test: uptake of IR783 in cell lines: leukemia; type: cell-based, human
# Text: as §1
compound,measurement,setting,value
CC1(C)C(=CC=C2CCCC(C=CC3=[N+](CCCCS(=O)(=O)[O-])c4ccccc4C3(C)C)=C2Cl)N(CCCCS(=O)(=O)[O-])c2ccccc21.[Na+] [IR783],Uptake,VEC,Very low
same,Uptake,NPF,Very low
same,non-specific imaging,[1]; 0.2 μg/kg i.p,"non-specific imaging can be seen in the first 24 hrs, predominantly in the liver"
same,retention in tumors,"[1]; 0.2 μg/kg i.p, 3.4 cm^3 orthotopic ARCaPM tumor",more than 4 days
same,initial distribution,[1]; 0.2 μg/kg i.v or i.p,"initially accumulated in liver, lung and spleen"
same,time at which dye appeared in tumor,[1]; 0.2 μg/kg i.v or i.p,24 h
same,time after which tumors and metastases can be readily identified,"[1]; ARCaP orthotopic tumors, FIG. 19",24 to 48 h
same,signal in mice without tumors,[1]; data not shown,background activity
same,accumulation in gall bladder or urinary bladder,"[1]; mouse, in vivo",not detected
same,time of accumulation in tumor and metastases,"[1]; orthotopic xenograft ARCaPm tumor, FIG. 16 legend",24 to 96 h
same,tumor images,"ARCaPM and PC3 tumors; intratibial ARCaPM tumors, data not shown",Clear tumor images were detected
same,tumor images,ARCaPM and PC3 tumors; subcutaneous ARCaPM and PC3 tumors,clear tumor images can be detected
same,Uptake,HaCaT,Very low
same,lowest number of cancer cells detected,[2],10 human prostate cancer cells/ml of human blood
same,fluorescence of normal periphery mononucleated cells,"[2]; 37° C., 30 minutes",very low to background NIR fluorescence
same,fluorescence of cancer cells,"[2]; 37° C., 30 minutes, whole blood of a healthy donor",strong fluorescence signals in the cytoplasm
same,cell death in culture,C4-2; 10 uM,did not induce cell death
same,cell death in culture,C4-2; 100 uM,induced a significant cell death
same,apoptosis,"C4-2; 100 μM, exposure 24 hrs",clearly induced apoptosis
same,Uptake,K562,Strong
